{
  "source": "ChEMBL document CHEMBL3525906",
  "about": "“A comprehensive assessment of repaglinide metabolic pathways: impact of choice of in vitro system and relative enzyme contribution to in vitro clearance” (Drug Metab Dispos, 2012)",
  "key": {"Hepatocyte [1]": {"system": "Hepatocyte", "assay": "Unbound intrinsic clearance in human hepatocytes assessed as 3'-hydroxy repaglinide formation measured per 10^6 cells at 0.5 to 150 uM by LC-MS/MS method", "assay_type": "ADME, cell-based"}, "[2]": {"assay": "Unbound intrinsic clearance in human hepatic S9 fraction assessed as 3'-hydroxy repaglinide formation measured per mg of protein at 0.5 to 150 uM by LC-MS/MS method", "assay_type": "ADME, tissue-based, Liver", "settings": "s9, 150 µM"}, "Homo sapiens": {"species_on_record": "Homo sapiens", "assay": "Ratio of AUC in variable OATP1B1 genotype human patient at 0.25 mg to AUC in ariable OATP1B1 genotype human patient at 0.25 mg co-treated with gemfibrozil on various time intervals", "assay_type": "ADME, organism-based", "settings": "in vivo"}, "Cytochrome P450 2C8": {"target": "T1, Cytochrome P450 2C8 (Homo sapiens, UniProt P10632)", "T1 sequence (P10632 whole entry)": "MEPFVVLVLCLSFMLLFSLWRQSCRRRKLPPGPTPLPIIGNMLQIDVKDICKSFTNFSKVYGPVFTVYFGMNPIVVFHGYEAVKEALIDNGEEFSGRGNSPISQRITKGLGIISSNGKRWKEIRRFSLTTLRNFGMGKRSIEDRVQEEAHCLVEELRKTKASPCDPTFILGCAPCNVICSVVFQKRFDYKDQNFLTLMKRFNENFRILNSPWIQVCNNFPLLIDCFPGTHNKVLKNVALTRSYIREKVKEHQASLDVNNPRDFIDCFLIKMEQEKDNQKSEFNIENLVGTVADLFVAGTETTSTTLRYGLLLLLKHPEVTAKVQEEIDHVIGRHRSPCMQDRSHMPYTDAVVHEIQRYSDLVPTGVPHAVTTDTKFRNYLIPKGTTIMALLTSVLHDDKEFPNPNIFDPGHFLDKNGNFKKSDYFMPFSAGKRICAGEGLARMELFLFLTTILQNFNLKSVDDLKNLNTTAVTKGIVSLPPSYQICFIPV", "assay": "Unbound intrinsic clearance in human recombinant CYP2C8 expressed in insect cells assessed as enzyme-mediated 2-despiperidyl-2-amino repaglinide formation per nanomole of protein at 0.5 to 150 uM by LC-MS/MS method", "assay_type": "ADME"}, "[3]": {"assay": "Drug metabolism in human hepatic S9 fraction assessed as 2-despiperidyl-2-(5-carboxypentylamine) repaglinide formation measured per mg of protein at 0.5 to 150 uM by LC-MS/MS method", "assay_type": "ADME, Liver", "settings": "s9, 150 µM"}, "Liver microsome": {"system": "Liver microsome", "assay": "Drug metabolism in human liver microsomes assessed as 2-despiperidyl-2-(5-carboxypentylamine) repaglinide formation by LC-MS/MS method", "assay_type": "ADME"}, "Hepatocyte [4]": {"system": "Hepatocyte", "assay": "Unbound intrinsic clearance in human hepatocytes assessed as 2-despiperidyl-2-(5-carboxypentylamine) repaglinide formation measured per 10^6 cells at 0.5 to 150 uM by LC-MS/MS method", "assay_type": "ADME, cell-based"}},
  "data": [
    {"molecule": "CCOc1cc(CC(=O)N[C@@H](CC(C)C)c2ccccc2N2CCCCC2)ccc1C(=O)O", "note": "[REPAGLINIDE]", "values": [
      {"measurement": "CL free", "setting": "Hepatocyte [1]", "value": 2.4, "unit": "uL/min/10^6cells"},
      {"measurement": "CL free", "setting": "[2]", "value": 2.7, "unit": "µL/min/mg"},
      {"measurement": "Ratio", "setting": "Homo sapiens", "value": 1},
      {"measurement": "CL free", "setting": "Cytochrome P450 2C8", "value": 3.7, "unit": "µL/min/nmol"},
      {"measurement": "Vmax", "setting": "[3]", "value": 94, "unit": "pmol/min/mg"},
      {"measurement": "Km", "setting": "Liver microsome", "value": 24, "unit": "µM"},
      {"measurement": "CL free", "setting": "Hepatocyte [4]", "value": 3.3, "unit": "uL/min/10^6cells"}
    ]}
  ]
}
